Source: US11980616B2, “Treating liver disease by selectively eliminating senescent cells” (Buck Institute for Research on Aging, priority 2014, dated 2024)

Columns and labels:
[1] = system: senescent foreskin fibroblasts (Sen(IR)BJ); assay: Cell count survival assay, irradiation-induced senescent BJ; type: cell-based; details: 0, 2.5, 10 μM for 9 days
Procedure: (§1) Foreskin fibroblast cell lines HCA2 and BJ, lung fibroblast cell line IMR90, and mouse embryonic fibroblasts were seeded in six-well plates and induced to senesce with 10 Gy of ionizing radiation (IR) or a 24 hr treatment with doxorubicin (Doxo). Senescent phenotype was allowed to develop for at least 7 days, at which point a cell count was made to determine the baseline number of cells. Nutlin-3a treatment was then initiated for a period of at least 9 days. Media alone or media with drug as appropriate was refreshed at least every three days. At the end of the assay time period, cells are counted. Each condition was seeded in three plate wells and counted independently. Initial cell count serves as a control to determine the induction of senescence, as compared to the last day count without nutlin treatment. Initial non-senescent cell count serves as a proxy to determine Nutlin-3a toxicity.
Foreskin fibroblast cell lines HCA2 and BJ, lung fibroblast cell line IMR90, and mouse embryonic fibroblasts were exposed to 10 Gy of ionizing radiation (IR) to induce senescence. […] Percent survival was calculated as [cell count on day 9 of Nutlin-3a treatment/initial cell count on first day of Nutlin-3a treatment].

[2] = system: doxorubicin-treated (Doxo) senescent foreskin fibroblasts (HCA2); assay: Cell count survival assay, doxorubicin-induced senescent HCA2; type: cell-based; details: Sen(Doxo) HCA2; 9 days
Procedure: as §1
Foreskin fibroblasts (HCA2) and aortic endothelial cells (Endo Aort) were treated with doxorubicin (250 nM) for one day (24 hours) to induce senescence (see FIG. 1). Eight days following doxorubicin treatment, Nutlin-3a treatment was initiated. HCA2 cells were exposed to Nutlin-3a for 9 days, and aortic endothelial cells were exposed to Nutlin-3a for 11 days. […] Percent survival was calculated as [cell count on the last day of Nutlin-3a treatment/initial cell count on first day of Nutlin-3a treatment].

[3] = system: non-senescent lung fibroblasts (Non Sen IMR90); assay: Cell count toxicity assay, non-senescent IMR90; type: cell-based, human; details: 0, 2.5, 10 μM, 9 days
Procedure: as §1
Non-senescent foreskin fibroblasts (HCA2), lung fibroblasts (IMR90), and mouse embryonic fibroblasts (MEF) were treated with varying concentrations (0, 2.5 μM, and 10 μM) of Nutlin-3a for a period of 9 days to assess Nutlin-3a toxicity. Cell counts were taken at the start (NS start) and end of Nutlin-3a treatment. The difference between counts of cells not treated with Nutlin-3a on day 9 (NS 0) and cell counts determined at day zero (NS start) reflects the cell growth over the indicated time period. […]

[4] = system: IL-6 positive senescent IMR90 cells; assay: IL-6 immunofluorescence in irradiated senescent IMR90 cells; type: cell-based, human
Procedure: Primary human fibroblast (IMR90) cells were induced to senesce by applying 10 Gy of irradiation. Seven days after irradiation (Day 0), cells were treated with 10 μM Nutlin-3a or vehicle (DMSO) for nine days (Day 9). The drug or vehicle was refreshed every three days. Drug/vehicle was removed at Day 9 and the cells were cultured for an additional three days (Day 12). Cells were then fixed with 4% paraformaldehyde and stained by immunofluorescence with a specific anti-IL-6 antibody (R&D, AF-206-NA). Cells were counterstained with DAPI for nuclear visualization. The percent IL-6 positive cells is illustrated in FIG. 12A. IL-6 positive cells were determined in an unbiased manner using CellProfiler software. Three different cultures were assessed. Non-senescent cells had no detectable cells IL-6 production while senescent cells were about 8% positive at day 9 after vehicle (DMSO) treatment (16 days after irradiation). […] At day 12, 3 days after Nutlin-3a was removed and 19 days after irradiation, IL-6 positive cells in the vehicle control were about 9% and Nutlin3a treated cells were less than 1% positive for IL-6.

[5] = system: senescence markers and SASP factors in senescent IMR90 cells; assay: qPCR of senescence markers and SASP factors in irradiated senescent IMR90 cells; type: cell-based, human
Procedure: Primary human fibroblast (IMR90) cells were induced to senesce by applying 10 Gy of irradiation. Seven days after irradiation (Day 0), cells were treated with 10 μM Nutlin-3a or vehicle (DMSO) for nine days (Day 9). The drug or vehicle was refreshed every three days. Drug/vehicle was removed at Day 9 and the cells were cultured for an additional three days (Day 12) in media without drug or DMSO. Cells were then collected, mRNA extracted, and cDNA prepared. Quantitative PCR (qPCR) was then performed to detect expression of various genes. Cells were also collected at Day 12 after drug/vehicle had been removed for three days. The data are presented as an average of three samples. Data were normalized to actin and depicted as a ratio to non-senescent cells.

[6] = system: p16-3MR mice fed a high fat diet; assay: Glucose tolerance and insulin sensitivity in p16-3MR mice fed a high fat diet; type: in vivo, mouse
Procedure: Groups of p16-3MR mice (n=9) were fed a high fat diet for four months mice or a regular chow diet. Animals were then treated with ganciclovir (3 rounds of 25 mg/kg ganciclovir administered daily for five consecutive days) or vehicle. A glucose bolus was given at time zero, and blood glucose was monitored at 20, 30, 60, and 120 minutes after delivering glucose to determine glucose disposal (see FIG. 69A). […] Insulin sensitivity was also determined (Insulin Tolerance Testing (ITT)). […] Changes in weight, body composition, and food intake were also monitored.

[7] = 10 μM, drug present and after removal
[8] = Day 12, three days after drug removal
[9] = 3 rounds of 25 mg/kg daily for five days, vs vehicle

| SMILES | Percent survival [1] | Percent survival [2] | Proliferation (percent growth) [3] | Toxicity (cell number vs starting level) [3] | Percent IL-6 positive cells ([4]; 10 μM, Day 9, vehicle about 8%) | Percent IL-6 positive cells ([4]; Day 12, 3 days after drug removal, vehicle about 9%) | p21 level relative to non-senescent cells ([5]; 10 μM, Day 9, qPCR normalized to actin) | IL-1α level ([5]; 10 μM, Day 9 and Day 12) | CXCL-1 level [5, 7] | IL-6 level [5, 7] | IL-8 level [5, 7] | p16 level [5, 8] | p21 level vs DMSO treated cells [5, 8] | p16 level ([5]; in the presence of drug (Day 9)) | Insulin Tolerance Testing: blood glucose ([6]; 0, 14, 30, 60, and 120 minutes) | Glucose tolerance test AUC [6, 9] | Hemoglobin A1c [6, 9] |
| --- | --- | --- | --- | --- | --- | --- | --- | --- | --- | --- | --- | --- | --- | --- | --- | --- | --- |
| COc1ccc(C2=N[C@@H](c3ccc(Cl)cc3)[C@@H](c3ccc(Cl)cc3)N2C(=O)N2CCNC(=O)C2)c(OC(C)C)c1 [Nutlin-3a] | reduced cell survival | sensitive | reduces proliferation | non-toxic | below 5% | less than 1% | approximately 90 fold | decreased only after Nutlin-3a had been removed | reduced | reduced | reduced | decrease | comparable | did not change |  |  |  |
| Nc1nc(O)c2ncn(COC(CO)CO)c2n1 [ganciclovir] |  |  |  |  |  |  |  |  |  |  |  |  |  |  | greater decrease in blood glucose | significantly lower | lower |
